Source: patent publication US20130217664A1, “NOVEL COMPOUNDS USEFUL FOR THE TREATMENT OF DEGENERATIVE AND INFLAMMATORY DISEASES” (priority 2012, published 2013)

Legend:
[1] = target: T1, human JAK2 (Homo sapiens, UniProt O60674); assay: JAK2 inhibition assay (polyGT substrate / Ulight-JAK1 peptide); type: biochemical; settings: recombinant human JAK2 catalytic domain; polyGT or Ulight-JAK1 peptide assay
T1 construct: catalytic domain (amino acids 808-1132; catalog number PV4210); GST; purchased Invitrogen PV4210
T1 sequence (O60674 808-1132): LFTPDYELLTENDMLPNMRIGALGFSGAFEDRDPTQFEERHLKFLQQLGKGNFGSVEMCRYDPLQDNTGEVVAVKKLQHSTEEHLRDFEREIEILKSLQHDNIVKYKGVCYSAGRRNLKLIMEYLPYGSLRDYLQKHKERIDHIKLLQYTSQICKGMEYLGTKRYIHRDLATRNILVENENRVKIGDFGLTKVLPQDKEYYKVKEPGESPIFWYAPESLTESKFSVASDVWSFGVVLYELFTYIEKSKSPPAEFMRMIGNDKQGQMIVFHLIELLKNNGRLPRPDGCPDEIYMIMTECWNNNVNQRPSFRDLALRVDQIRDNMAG
Method in brief: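 Two JAK2 formats: a ^33P-ATP polyGT assay (1 μM cold ATP, 90 min, 30° C., cpm read-out) and a Ulight-JAK1 peptide assay read by Europium-anti-phosphotyrosine fluorescence after 60 min at room temperature.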

[2] = target: T2, human TYK2 (Homo sapiens, UniProt P29597); assay: TYK2 inhibition assay; type: biochemical; settings: recombinant human TYK2 catalytic domain, polyGT substrate
T2 construct: catalytic domain (amino acids 871-1187; catalog number 08-147); purchased Carna Biosciences 08-147
T2 sequence (P29597 871-1187): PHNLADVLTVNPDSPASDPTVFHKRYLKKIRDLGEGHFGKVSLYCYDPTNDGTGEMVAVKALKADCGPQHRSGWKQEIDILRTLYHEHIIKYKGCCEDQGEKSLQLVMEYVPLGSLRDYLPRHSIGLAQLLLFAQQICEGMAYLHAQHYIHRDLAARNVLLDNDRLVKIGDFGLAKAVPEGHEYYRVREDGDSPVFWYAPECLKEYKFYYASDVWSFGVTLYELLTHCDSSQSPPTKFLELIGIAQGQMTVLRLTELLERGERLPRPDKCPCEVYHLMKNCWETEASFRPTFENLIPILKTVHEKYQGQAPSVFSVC
Method in brief: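 Radiometric kinase reaction run 90 min at 30 °C, stopped with phosphoric acid, washed and scintillation-counted.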

CN(c1ccc(O)cc1)c1cc2c(cn1)ncn2C [Compound 17, 4-(methyl(1-methyl-1H-imidazo[4,5-c]pyridin-6-yl)amino)phenol]
IC50 [1]: 501 to 1000 nM | IC50 [2]: 101 to 500 nM

CN(c1ccc(CC#N)cc1)c1cc2c(cn1)ncn2C [Compound 26, 2-(4-(Methyl(1-methyl-1H-imidazo[4,5-c]pyridin-6-yl)amino)phenyl)acetonitrile]
IC50 [1]: 101 to 500 nM | IC50 [2]: 101 to 500 nM

COC(=O)c1ccc(N(C)c2cc3c(cn2)ncn3C)c(C)c1 [Compound 27, Methyl 3-methyl-4-(methyl(1-methyl-1H-imidazo[4,5-c]pyridin-6-yl)amino)benzoate]
IC50 [1]: > 1000 nM | IC50 [2]: > 1000 nM

CCc1cc(F)ccc1N(C)c1cc2c(cn1)ncn2C [Compound 28, N-(2-Ethyl-4-fluorophenyl)-N,1-dimethyl-1H-imidazo[4,5-c]pyridin-6-amine]
IC50 [1]: 501 to 1000 nM | IC50 [2]: 101 to 500 nM

Cc1cc(CO)ccc1N(C)c1cc2c(cn1)ncn2C [Compound 29, (3-Methyl-4-(methyl(1-methyl-1H-imidazo[4,5-c]pyridin-6-yl)amino)phenyl) MeOH]
IC50 [1]: > 1000 nM | IC50 [2]: 501 to 1000 nM

CNC(=O)c1ccc(N(C)c2cc3c(cn2)ncn3C)c(C)c1 [Compound 30, N,3-Dimethyl-4-(methyl(1-methyl-1H-imidazo[4,5-c]pyridin-6-yl)amino)-benzamide]
IC50 [1]: > 1000 nM | IC50 [2]: > 1000 nM

Cc1cc(C#N)ccc1N(C)c1cc2c(cn1)ncn2C [Compound 31, 3-Methyl-4-(methyl(1-methyl-1H-imidazo[4,5-c]pyridin-6-yl)amino)benzonitrile]
IC50 [1]: > 1000 nM | IC50 [2]: 501 to 1000 nM

Cc1cc(C(N)=O)ccc1N(C)c1cc2c(cn1)ncn2C [Compound 32, 3-Methyl-4-(methyl(1-methyl-1H-imidazo[4,5-c]pyridin-6-yl)amino)benzamide]
IC50 [1]: > 1000 nM | IC50 [2]: > 1000 nM

COc1ccc(COc2ccc(N(C)c3cc4c(cn3)ncn4C)c(C)c2)cc1 [Compound 33, N-(4-(4-Methoxybenzyloxy)-2-methylphenyl)-N,1-dimethyl-1H-imidazo[4,5-c]pyridin-6-amine]
IC50 [1]: > 1000 nM | IC50 [2]: > 1000 nM

CCc1ccccc1N(CC)c1cc2c(cn1)ncn2C [Compound 34, N-Ethyl-N-(2-ethylphenyl)-1-methyl-1H-imidazo[4,5-c]pyridin-6-amine]
IC50 [1]: 501 to 1000 nM | IC50 [2]: 0.01 to 100 nM

CCc1ccccc1N(CC1CC1)c1cc2c(cn1)ncn2C [Compound 35, N-(cyclopropylmethyl)-N-(2-ethylphenyl)-1-methyl-1H-imidazo[4,5-c]pyridin-6-amine]
IC50 [1]: > 1000 nM | IC50 [2]: 101 to 500 nM

Cc1cc(O)ccc1N(C)c1cc2c(cn1)ncn2C [Compound 38, 3-Methyl-4-(methyl(1-methyl-1H-imidazo[4,5-c]pyridin-6-yl)amino)phenol]
IC50 [1]: > 1000 nM | IC50 [2]: 101 to 500 nM

CN(c1cc2c(cn1)ncn2C)c1ccccc1OC(F)F [Compound 39, N-(2-(difluoromethoxy)phenyl)-N,1-dimethyl-1H-imidazo[4,5-c]pyridin-6-amine]
IC50 [1]: 501 to 1000 nM | IC50 [2]: 501 to 1000 nM

COc1ccc(COc2ccc(C)c(N(C)c3cc4c(cn3)ncn4C)c2)cc1 [Compound 43, N-(5-(4-methoxybenzyloxy)-2-methylphenyl)-N,1-dimethyl-1H-imidazo[4,5-c]pyridin-6-amine]
IC50 [1]: > 1000 nM | IC50 [2]: > 1000 nM

Cc1cc(OCC#N)ccc1N(C)c1cc2c(cn1)ncn2C [Compound 47, 2-(3-methyl-4-(methyl(1-methyl-1H-imidazo[4,5-c]pyridin-6-yl)amino)phenoxy)acetoni-trile]
IC50 [1]: 101 to 500 nM | IC50 [2]: 101 to 500 nM

Cc1cc(OCCCC#N)ccc1N(C)c1cc2c(cn1)ncn2C [Compound 48, 4-(3-methyl-4-(methyl(1-methyl-1H-imidazo[4,5-c]pyridin-6-yl)amino)phenoxy)butane nitrile]
IC50 [1]: > 1000 nM | IC50 [2]: 501 to 1000 nM

Cc1ccc(OCc2ccccc2)cc1N(C)c1cc2c(cn1)ncn2C [Compound 56, N-(5-(benzyloxy)-2-methylphenyl)-N,1-dimethyl-1H-imidazo[4,5-c]pyridin-6-amine]
IC50 [1]: > 1000 nM | IC50 [2]: > 1000 nM

Cc1ccc(OCC#N)cc1N(C)c1cc2c(cn1)ncn2C [Compound 57, 2-(4-methyl-3-(methyl(1-methyl-1H-imidazo[4,5-c]pyridin-6-yl)amino)phenoxy)acetoni-trile]
IC50 [1]: 101 to 500 nM | IC50 [2]: 501 to 1000 nM

Cc1ccc(OCCCC#N)cc1N(C)c1cc2c(cn1)ncn2C [Compound 60, 4-(4-methyl-3-(methyl(1-methyl-1H-imidazo[4,5-c]pyridin-6-yl)amino)phenoxy)butane nitrile]
IC50 [1]: > 1000 nM | IC50 [2]: 501 to 1000 nM

Cc1ccc(OCc2cccnc2)cc1N(C)c1cc2c(cn1)ncn2C [Compound 61, N,1-dimethyl-N-(2-methyl-5-(pyridin-3-ylmethoxy)phenyl)-1H-imidazo[4,5-c]pyridin-6-amine]
IC50 [1]: > 1000 nM | IC50 [2]: > 1000 nM

Cc1ccc(OCc2ccc(Cl)cc2)cc1N(C)c1cc2c(cn1)ncn2C [Compound 62, N-(5-(4-chlorobenzyloxy)-2-methylphenyl)-N,1-dimethyl-1H-imidazo[4,5-c]pyridin-6-amine]
IC50 [1]: > 1000 nM | IC50 [2]: > 1000 nM

Cc1ccc(OCC(C)C)cc1N(C)c1cc2c(cn1)ncn2C [Compound 63, N-(5-isobutoxy-2-methylphenyl)-N,1-dimethyl-1H-imidazo[4,5-c]pyridin-6-amine]
IC50 [1]: > 1000 nM | IC50 [2]: > 1000 nM

Cc1c(OCC#N)cccc1N(C)c1cc2c(cn1)ncn2C [Compound 64, 2-(2-methyl-3-(methyl(1-methyl-1H-imidazo[4,5-c]pyridin-6-yl)amino)phenoxy)acetoni-trile]
IC50 [1]: 101 to 500 nM | IC50 [2]: 101 to 500 nM

Cc1cc(-c2cn[nH]c2)ccc1N(C)c1cc2c(cn1)ncn2C [Compound 71, N,1-Dimethyl-N-(2-methyl-4-(1H-pyrazol-4-yl)phenyl)-1H-imidazo[4,5-c]pyridin-6-amine]
IC50 [1]: 101 to 500 nM | IC50 [2]: 0.01 to 100 nM

Cc1cc(-c2cncnc2)ccc1N(C)c1cc2c(cn1)ncn2C [Compound 72, N,1-dimethyl-N-(2-methyl-4-(pyrimidin-5-yl)phenyl)-1H-imidazo[4,5-c]pyridin-6-amine]
IC50 [1]: > 1000 nM | IC50 [2]: 501 to 1000 nM

Cc1cc(-c2cnn(C)c2)ccc1N(C)c1cc2c(cn1)ncn2C [Compound 73, N,1-dimethyl-N-(2-methyl-4-(1-methyl-1H-pyrazol-4-yl)phenyl)-1H-imidazo[4,5-c]pyridin-6-amine]
IC50 [1]: 501 to 1000 nM | IC50 [2]: 101 to 500 nM

CCc1cc(C(=O)OC)ccc1N(C)c1cc2c(cn1)ncn2C [Compound 80, Methyl 3-ethyl-4-(methyl(1-methyl-1H-imidazo[4,5-c]pyridin-6-yl)amino)benzoate]
IC50 [1]: 101 to 500 nM | IC50 [2]: 101 to 500 nM

CCc1ccc(C#N)cc1N(C)c1cc2c(cn1)ncn2C [Compound 83, 4-ethyl-3-(methyl(1-methyl-1H-imidazo[4,5-c]pyridin-6-yl)amino)benzonitrile]
IC50 [1]: 101 to 500 nM | IC50 [2]: 101 to 500 nM

CCc1ccc(F)cc1N(C)c1cc2c(cn1)ncn2C [Compound 84, N-(2-ethyl-5-fluorophenyl)-N,1-dimethyl-1H-imidazo[4,5-c]pyridin-6-amine]
IC50 [1]: 101 to 500 nM | IC50 [2]: 101 to 500 nM

CCc1cc(C(=O)NC)ccc1N(C)c1cc2c(cn1)ncn2C [Compound 85]
IC50 [1]: 501 to 1000 nM | IC50 [2]: 101 to 500 nM

CCc1cc(C(=O)NCCC#N)ccc1N(C)c1cc2c(cn1)ncn2C [Compound 86, N-(2-Cyanoethyl)-3-ethyl-4-(methyl(1-methyl-1H-imidazo[4,5-c]pyridin-6-yl)amino)benzamide]
IC50 [1]: 501 to 1000 nM | IC50 [2]: 501 to 1000 nM

Cc1ccc(Oc2ccc(C#N)nc2)cc1N(C)c1cc2c(cn1)ncn2C [Compound 91, 5-(4-methyl-3-(methyl(1-methyl-1H-imidazo[4,5-c]pyridin-6-yl)amino)phenoxy)picolino-nitrile]
IC50 [1]: > 1000 nM | IC50 [2]: > 1000 nM

CCc1cc(-c2cccnc2)ccc1N(C)c1cc2c(cn1)ncn2C [Compound 94, N-(2-ethyl-4-(pyridin-3-yl)phenyl)-N,1-dimethyl-1H-imidazo[4,5-c]pyridin-6-amine]
IC50 [1]: 101 to 500 nM | IC50 [2]: 0.01 to 100 nM

CCc1cc(C(=O)NCc2ccccc2)ccc1N(C)c1cc2c(cn1)ncn2C [Compound 98, N-benzyl-3-ethyl-4-(methyl(1-methyl-1H-imidazo[4,5-c]pyridin-6-yl)amino)benzamide]
IC50 [1]: 501 to 1000 nM | IC50 [2]: 501 to 1000 nM

CCNC(=O)c1ccc(N(C)c2cc3c(cn2)ncn3C)c(CC)c1 [Compound 102, N,3-diethyl-4-(methyl(1-methyl-1H-imidazo[4,5-c]pyridin-6-yl)amino)benzamide]
IC50 [1]: > 1000 nM | IC50 [2]: 101 to 500 nM

CCc1cc(C(C)(C)O)ccc1N(C)c1cc2c(cn1)ncn2C [Compound 103, 2-(3-Ethyl-4-(methyl(1-methyl-1H-imidazo[4,5-c]pyridin-6-yl)amino)phenyl)propan-2-ol]
IC50 [1]: 101 to 500 nM | IC50 [2]: 0.01 to 100 nM

CCc1cc(COC)ccc1N(C)c1cc2c(cn1)ncn2C [Compound 105, N-(2-Ethyl-4-(methoxymethyl)phenyl)-N,1-dimethyl-1H-imidazo[4,5-c]pyridin-6-amine]
IC50 [1]: 101 to 500 nM | IC50 [2]: 0.01 to 100 nM
